Values quoted from earlier work as cited in patent US8962594B2, “Method of using nutritional compounds dihydroquercetin (taxifolin) and arabinogalactan in combination with dihydroquercetin (taxifolin) to reduce and control cardiometabolic risk factors associated with metabolic syndrome and hypercholesterolemia” (Flavitpure, Inc., priority 2012, dated 2015).

Experiments:
TNF-α = details: LPS-stimulated PBMC, pre-treated
IL-1β = details: LPS-stimulated PBMC, pre-treated
RBCs [1] = details: pre-incubation of RBCs with water-soluble compound for 30 min; remaining hemolysis
RBCs [2] = details: remaining hemolysis; vehicle 75.7±5.2%, P<0.001
RGC-5 cells = details: read-out: EC50 for protection of RGC-5 cells from oxidative stress induced by GSH depletion
[3] = test system: CNS-derived mouse HT22 cells; details: read-out: EC50 for protection of HT22 cells from a similar insult
[4] = test system: Glutathione prexidase (GPx); details: 25 and 50 μM
HepG2 cells = details: 200 umol, within 24 h
HMG-CoA reductase = target: T1, HMG-CoA reductase (Homo sapiens, UniProt P04035)
T1 construct: endogenous in cells; host or cells: HepG2
T1 sequence (P04035 1-888): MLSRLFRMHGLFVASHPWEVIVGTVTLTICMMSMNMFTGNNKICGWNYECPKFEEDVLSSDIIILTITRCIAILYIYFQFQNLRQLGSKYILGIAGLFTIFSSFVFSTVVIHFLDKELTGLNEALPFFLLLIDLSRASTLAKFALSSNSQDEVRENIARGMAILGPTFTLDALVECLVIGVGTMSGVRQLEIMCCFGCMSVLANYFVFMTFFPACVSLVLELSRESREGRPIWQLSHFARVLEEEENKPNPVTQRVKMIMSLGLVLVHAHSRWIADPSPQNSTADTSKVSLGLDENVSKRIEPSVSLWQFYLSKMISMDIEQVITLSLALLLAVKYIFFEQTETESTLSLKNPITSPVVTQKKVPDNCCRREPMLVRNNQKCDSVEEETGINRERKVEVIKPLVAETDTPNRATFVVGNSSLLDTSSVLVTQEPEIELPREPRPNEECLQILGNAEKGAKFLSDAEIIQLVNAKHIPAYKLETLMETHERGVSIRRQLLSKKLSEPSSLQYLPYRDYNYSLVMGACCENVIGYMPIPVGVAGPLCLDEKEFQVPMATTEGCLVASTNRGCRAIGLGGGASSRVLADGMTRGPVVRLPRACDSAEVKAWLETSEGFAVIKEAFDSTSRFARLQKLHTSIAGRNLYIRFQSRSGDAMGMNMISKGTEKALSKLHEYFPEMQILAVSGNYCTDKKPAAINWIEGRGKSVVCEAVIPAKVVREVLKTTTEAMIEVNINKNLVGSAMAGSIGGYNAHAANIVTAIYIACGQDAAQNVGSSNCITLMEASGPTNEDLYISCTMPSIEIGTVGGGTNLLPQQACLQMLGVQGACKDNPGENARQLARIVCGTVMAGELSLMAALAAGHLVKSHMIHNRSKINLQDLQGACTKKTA

[5] = test system: apolipoprotein A-I (apoA-I); details: pulse-chase, HepG2 cells
[6] = test system: diacylglycerol acyltransferase (DGAT); details: non-competitive
[7] = target: T2, microsomal triglyceride transfer protein (MTP) (Homo sapiens, UniProt P55157)
T2 construct: endogenous in cells; host or cells: HepG2
T2 sequence (P55157 19-894): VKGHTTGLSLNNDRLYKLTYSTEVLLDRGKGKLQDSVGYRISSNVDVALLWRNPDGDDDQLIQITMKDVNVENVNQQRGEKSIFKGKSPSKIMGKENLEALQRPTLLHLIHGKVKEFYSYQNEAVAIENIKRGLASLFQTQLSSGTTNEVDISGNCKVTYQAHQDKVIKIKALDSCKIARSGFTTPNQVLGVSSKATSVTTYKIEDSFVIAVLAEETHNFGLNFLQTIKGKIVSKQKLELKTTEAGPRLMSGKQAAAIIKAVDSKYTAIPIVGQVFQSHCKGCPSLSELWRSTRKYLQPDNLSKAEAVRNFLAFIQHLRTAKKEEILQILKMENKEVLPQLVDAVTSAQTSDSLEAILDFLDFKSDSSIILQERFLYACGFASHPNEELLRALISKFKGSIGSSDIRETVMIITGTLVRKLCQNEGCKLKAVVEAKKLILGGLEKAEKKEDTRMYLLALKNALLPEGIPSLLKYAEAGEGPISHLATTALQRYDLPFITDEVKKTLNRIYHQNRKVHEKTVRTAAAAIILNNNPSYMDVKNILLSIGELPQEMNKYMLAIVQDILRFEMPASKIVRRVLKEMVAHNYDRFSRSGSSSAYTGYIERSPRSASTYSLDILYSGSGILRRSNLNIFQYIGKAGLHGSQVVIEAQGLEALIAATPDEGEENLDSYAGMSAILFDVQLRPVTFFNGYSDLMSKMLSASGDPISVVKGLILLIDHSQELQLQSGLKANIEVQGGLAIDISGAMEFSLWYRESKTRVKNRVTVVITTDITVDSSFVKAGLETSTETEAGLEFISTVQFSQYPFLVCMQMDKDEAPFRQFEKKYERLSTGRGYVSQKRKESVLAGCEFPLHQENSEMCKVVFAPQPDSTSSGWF

PPARa = details: supplementation of HepG2 cells
rats = rats treated with high levels for long periods of time

Row | Compound | mean inhibition of the secretion of TNF-α (TNF-α) [%] | inhibition of IL-1β secretion (IL-1β) [%] | peroxyl radical (AAPH)-induced hemolysis reduced to (RBCs [1]) [%] | phospholipase C-induced hemolysis (RBCs [2]) [%] | EC50 (RGC-5 cells) [µM] | EC50 [3] [µM] | Glutathione prexidase (GPx) protein level [4] | inhibition of cholesterol synthesis (HepG2 cells) | inhibition of HMG-CoA reductase activity (HMG-CoA reductase) | increase of ApoA-I secretion [5] | reduction of apoB secretion (apolipoprotein B (apoB); basal and lipid-rich conditions, 200 micromol/L) | average reduction in labeled apoB in the medium (apolipoprotein B (apoB); pulse-chase, HepG2 cells) | decrease in DGAT activity (change) [6] [%] | inhibition of MTP [7] [%] | DGAT-1 mRNA expression (DGAT-1 mRNA) | DGAT-2 mRNA expression (DGAT-2 mRNA) | PPARa expression (PPARa) | toxic effects (rats) | TG transfer into the microsomal lumen (change) (microsomal TG synthesis) [%] | inhibition of microsomal TG synthesis (microsomal TG synthesis) [%]
1 | O=C(O)Cc1ccc(O)c(O)c1 [3,4-DHPAA, 3,4-dihydroxyphenylacetic acid] | 86.4 | 97.9 | – | – | – | – | – | – | – | – | – | – | – | – | – | – | – | – | – | –
2 | O=C1c2c(O)cc(O)cc2OC(c2ccc(O)c(O)c2)C1O (racemic) [Dihydroquercetin (taxifolin)] | – | – | 32.5±5.6 | 45.4±10.0 | 30 | > 50 | significantly increased | 86+−3% | 47+−7% | 36+−10% | up to 63% | 61+−8% | −35 | 41 | essentially unchanged | essentially unchanged | increase | No toxic effects | −26 | 37
